ChEMBL document CHEMBL3301361, “Experimental in vitro DMPK and physicochemical data on a set of publicly disclosed compounds”
≈ marks a conversion by molar mass, not a printed value.

Tests used:
physchem [1] = settings: octan-1-ol/water
in vitro [2] = settings: Dunkin Hartley, guinea pig, plasma
in vitro [3] = settings: human, plasma
in vitro [4] = settings: human, hepatocytes
in vitro [5] = settings: SD, HW or BN, rat, plasma
in vitro [6] = settings: hepatocytes
in vitro [7] = settings: human
physchem [8] = settings: pH 7.4 buffer
in vitro [9] = settings: Beagle, dog, plasma
physchem [10] = test: physchem

Compound	logD (physchem [1]; pH 7.4, LogD7.4)	fraction unbound at 5 h (in vitro [2])	fraction unbound at 5 h (in vitro [3]; PPB)	fraction unbound at 5 h (in vitro [5])	hepatocyte CLint (in vitro [6]) [µL/min/1e6 cells]	microsomal CLint (in vitro [7]; liver microsomes) [µL/min/mg]	further results
O=CNc1cc([C@@H](O)CNCCc2ccc(NC[C@H](O)c3ccccc3)cc2)ccc1O [MILVETEROL]	0.02	0.194	0.285				hepatocyte CLint (in vitro [4]): < 3 µL/min/1e6 cells
C[C@H](Cc1cccc(CC(=O)NC23CC4CC(CC(C4)C2)C3)c1)NC[C@H](O)c1ccc(O)c(CO)c1	2.4	0.208		0.134	43	129	hepatocyte CLint (in vitro [4]): 21.9 µL/min/1e6 cells
O=C(NCC1CCCCN1)c1cc(OCC(F)(F)F)ccc1OCC(F)(F)F (centres undefined) [FLECAINIDE]	1.13	0.574	0.619	0.535			
CN(C)c1nc(Cc2ccc(NC(=O)c3ccc(C(F)(F)F)cc3)cc2)nc(N(C)C)c1CC(=O)O [BI-671800]	1.46	0.0437	0.0039	0.0025	18.6	< 3	solubility thermodynamic (physchem [8]): 28.8 µM (≈ 14.4 µg/mL); hepatocyte CLint (in vitro [4]): 4.47 µL/min/1e6 cells
C[C@@](C(=O)O[C@H]1C[N+]2(CCc3ccccc3F)CCC1CC2)(c1ccccc1)N1CCCCC1		0.194			130		
CC(C)(C)NCC(O)c1ccc(O)c(CO)c1 (centres undefined) [ALBUTEROL]		0.855	0.772	0.656			
COc1cnc(-c2ccccc2C(F)(F)CNC(=O)c2ccc(COCC(F)(F)F)nc2)cn1		0.0544	0.0069	0.0532			solubility thermodynamic (physchem [8]): 85.1 µM (≈ 41.1 µg/mL)
CCCCN(CCNCCc1ccc(O)c2[nH]c(=O)sc12)C(=O)CCOCCc1ccccc1	3	0.17	0.0532	0.0705	> 150	141	hepatocyte CLint (in vitro [4]): 25.9 µL/min/1e6 cells
CC(C)N(CCNCCc1ccc(O)c2[nH]c(=O)sc12)C(=O)CCOCCc1ccccc1	2.33	0.0752	0.028		99		microsomal CLint (in vitro [7]; microsomes): 60 µL/min/mg
CCCNC(c1cccnc1)P(=O)(c1ccccc1)c1ccccc1 (centres undefined)		0.19		0.173			fraction unbound at 5 h (in vitro [9]): 0.197
C[N+]1(C)[C@@H]2C[C@@H](OC(=O)C(O)(c3cccs3)c3cccs3)C[C@H]1[C@@H]1O[C@@H]12 [TIOTROPIUM]		0.613					logD (physchem [1]; pH 7.4): -0.25; fraction unbound at 5 h (in vitro [9]): 0.807
O=c1[nH]c2c(O)ccc([C@@H](O)CNCCCOCCNCCc3cccc(Cl)c3)c2s1	-0.03	0.186			< 3	< 3	
CC(=O)Nc1nc2c(Oc3cc(-c4ccc(C(F)(F)F)cc4)ncn3)cccc2s1 [AMG-517]		0.0139	0.001	0.002			
COCCN(c1cccnc1)P(=O)(c1ccccc1)c1ccccc1		0.58		0.376			fraction unbound at 5 h (in vitro [3]): 0.0872
Cc1cc(CCC[N+]23CCC(CC2)[C@@H](OC(=O)[C@](C)(c2ccccc2)N2CCCCC2)C3)ccn1		0.529			36.1		
C[C@@](C(=O)O[C@H]1C[N+]2(CC(=O)Nc3ccccc3)CCC1CC2)(c1ccccc1)N1CCCCC1		0.0499			64		
CCCN(CCNCCc1ccc(O)c2[nH]c(=O)sc12)C(=O)CCOCCc1ccccc1		0.11	0.0606		107	> 150	

Compound	logD (physchem [1]; pH 7.4, LogD7.4)	fraction unbound at 5 h (in vitro [2])	fraction unbound at 5 h (in vitro [3]; PPB)	fraction unbound at 5 h (in vitro [5])	hepatocyte CLint (in vitro [6]) [µL/min/1e6 cells]	microsomal CLint (in vitro [7]; liver microsomes) [µL/min/mg]	further results
O=c1[nH]c2c(O)ccc([C@@H](O)CNCCc3cccc(CNCCc4ccccc4F)c3)c2s1	1.06	0.107		0.134	22	17	hepatocyte CLint (in vitro [4]): < 3 µL/min/1e6 cells
COc1cccc(CNCc2cccc(CCNC[C@H](O)c3ccc(O)c4[nH]c(=O)sc34)c2)c1	0.91	0.216	0.137	0.154		35	
C[C@@](C(=O)O[C@H]1C[N+]2(CCc3ccccc3)CCC1CC2)(c1ccccc1)N1CCCCC1		0.129		0.22	76		
CCCN(c1cccc(S(C)(=O)=O)c1)P(=O)(c1ccccc1)c1ccccc1		0.289		0.186			fraction unbound at 5 h (in vitro [3]): 0.0321
COc1cccc2c1c(NS(=O)(=O)c1ccc(Cl)s1)nn2Cc1cccc(CNC(=O)C(C)(C)O)c1	2.09	0.035	0.0133	0.0082	25	50	solubility thermodynamic (physchem [8]): 81.3 µM (≈ 44.6 µg/mL); hepatocyte CLint (in vitro [4]): 40 µL/min/1e6 cells
O=c1[nH]c2c(O)ccc([C@@H](O)CNCCCSCCOCCc3cccc4ccccc34)c2s1	3.12	0.0088	0.0067	0.0082	85	70	hepatocyte CLint (in vitro [4]): 14.8 µL/min/1e6 cells
O=C(c1c[nH]c(=O)c2ccccc12)N1CCC(N2CCC(Oc3ccc(Cl)c(Cl)c3)CC2)CC1	3.51	0.17	0.089				fraction unbound at 5 h (in vitro [9]): 0.0488
Cc1nn(C2CCCCC2)c(N)c1-c1ccccc1		0.105	0.0447	0.101			hepatocyte CLint (in vitro [4]): 13.8 µL/min/1e6 cells
CN(CCNCCc1ccc(O)c2[nH]c(=O)sc12)C(=O)CCOCCc1ccccc1		0.276	0.107	0.208	140	35	
Cc1nccn1CC1CCc2c(c3ccccc3n2C)C1=O (centres undefined) [ONDANSETRON]	1.67	0.635				6.46	hepatocyte CLint (in vitro [4]): < 3 µL/min/1e6 cells; pKa (physchem [10]): 7.73
CCN(CCNCCc1ccc(O)c2[nH]c(=O)sc12)C(=O)CCOCCc1ccccc1	1.92	0.103	0.0544		135	82	
O=C1COc2c(CCNCCN(C(=O)CCNCCc3ccc(Cl)c(Cl)c3)C3CCCCC3)ccc(O)c2N1	2.23	0.173	0.0313	0.0801	22		microsomal CLint (in vitro [7]; microsomes): 38 µL/min/mg
O=c1[nH]c2c(O)ccc(CCNCCS(=O)(=O)CCCOCCc3ccccc3)c2s1 [SIBENADET]	2.61	0.101	0.0556	0.0784	91		microsomal CLint (in vitro [7]; microsomes): 111 µL/min/mg
C[C@@](C(=O)O[C@H]1C[N+]2(CCCc3ccc4ncsc4c3)CCC1CC2)(c1ccccc1)N1CCCCC1		0.244			66		
COc1ccccc1CCNCc1ccc(CCNC[C@H](O)c2ccc(O)c3[nH]c(=O)sc23)cc1		0.0447	0.0447	0.0606	29	25	
N#Cc1ccc2c(c1)N(CCN1CCC(NCc3ccc4c(n3)NC(=O)CO4)CC1)C(=O)CO2		0.591			8.51		logD (physchem [1]; pH 7.4): 0.23
